Broadly, the IC50 is the point on the concentration scale where inhibition reaches its midpoint.

Like-named read-outs stand apart in the source and are kept apart here.

Experiment [1] has as its target phospholipase A2 obtained from human leucocytes. Description: In vitro test for determining the inhibition of phospholipase A2 obtained from human leucocytes. Format: biochemical. To be noted: pH 7, 37°, one hour, 14C-oleic acid labelled E. coli phospholipids. From the text:
In vitro test for determining the inhibition of phospholipase A2 obtained from human leucocytes Human neutrophilic polymorphonuclear leucocytes are isolated from "buffy coats" by multistage fractional sedimentation and deep-frozen. Phospholipase A2 is extracted from the cell suspension by homogenisation with the addition of ice-cold 0.36N H2 SO4 in 2M NaCl and the supernatant obtained after centrifugation at 10,000 g is dialysed against sodium acetate buffer pH 4.5. […] The reaction is stopped by the addition of Dole reagent (isopropanol/heptane/1N H2 SO4 40:10:1, v/v) and the ^14 C-oleic acid released selectively by phospholipase A2 is extracted. […] The ^14 C-oleic acid in the eluate is determined radiometrically. In order to ascertain the inhibitory action of test substances on phospholipase A2, these substances are added to the incubation mixture in the form of solutions in water, dimethyl sulphoxide (final concentration in the mixture up to 5% by volume) or ethanol (final concentration in the mixture up to 2.5% by volume). The strength of action of the test substances is expressed by the IC50, that is to say the concentration that brings about a 50% inhibition of the control activity The IC50 is ascertained on a graph by entering the percentage inhibition on the ordinate against the logarithm of the concentration (μM) on the abscissa.

For experiment [2], the target named is phospholipase C obtained from human thrombocytes. The experiment is described as follows: In vitro test for determining the inhibition of phospholipase C obtained from human thrombocytes. The format is biochemical. The procedure: In vitro test for determining the inhibition of phospholipase C obtained from human thrombocytes
Human thrombocytes are obtained from "buffy coats" by fractional centrifugation and then deep-frozen. Phospholipase C is released by ultrasound treatment of the cell suspension and, after ultracentrifugation (150,000 g, 1 hour) is in soluble form in the supernatant.
In order to determine the enzyme activity, enzyme (20-100 μg protein) is incubated for 5 minutes at 37° in 0.025M tris/malate buffer pH 6 with the addition of 0.2 mM CaCl2 and 0.02 mM radioactively labelled substrate, phosphatidyl- [^14 C]-inositol. The reaction is stopped by extraction by shaking with CHCl3 /CH3 OH 2:1 (v/v). Substrate that has not been consumed is extracted into the organic phase while the reaction product, ^14 C-inositol phosphate, remains in the aqueous phase and can be measured by radiometry of an aliquot.
In order to ascertain the inhibitory action of test substances on phospholipase C, these substances are added to the incubation mixture in the form of solutions in water or dimethyl sulphoxide (final concentration in the mixture up to 5% by volume). The strength of action of the test substances is expressed by the IC50, that is to say the concentration that brings about a 50% inhibition of the control activity. The IC50 is ascertained on a graph by entering the percentage inhibition on the ordinate against the logarithm of the concentration (μM) on the abscissa.

Experiment [3] deals with LTD4-induced contractions of the isolated ileum. The experiment is described as follows: Inhibitory action on LTD4-induced contractions of the guinea-pig ileum. Format: cell-based, guinea-pigs. The note with it: Cavia porcellus; synthetic LTD4, guinea-pig ileum segments in Tyrode's solution, 38° C. The procedure: (§1) For example, they have an anti-allergic action which is based on a pronounced LTD4 (leucotriene-D4) and PAF (PAF-acetoether) antagonism.
Inhibitory action on LTD4 -induced contractions of the guinea-pig ileum
Contractions, the severity of which is recorded, are induced by synthetic LTD4 (leucotriene-D4, potassium salt) in ileum segments that have been taken from guinea-pigs having a body weight of from 300 to 400 g, fastened in an organ bath in Tyrode's solution (38° C., gassing with 95% O2 and 5% CO2) and charged with […]. The degree of inhibition of these contractions that is attributable to the LTD4 -antagonistic action of the test substance is measured. The concentration of test substance that reduces LTD4 -induced contractions to 50% of the starting value is ascertained, this concentration being termed IC50.

Experiment [4] has as its system LTD4-induced bronchospasms. Description: Bronchoconstriction test in guinea-pigs (in vivo, aerosol), LTD4-induced bronchospasm. The note with it: aerosol treatment, compliance in third minute after LTD4 aerosol. The procedure: as §1
Bronchoconstriction test in guinea-pigs (in vivo, aerosol)
Male guinea-pigs weighing from 400 to 700 g are anaesthetised intraperitoneally with 1.4 g/kg of urethane, and a polyethylene tube is introduced into the jugular vein. A second polyethylene tube is introduced into the trachea. The pressure in the oesophagus is recorded by means of a tube which is introduced into the oesophagus and which is connected to a Statham pressure transducer. […] The flow is measured by means of this arrangement. […]
Aqueous solutions are each freshly prepared and introduced by means of an on-stream drug vial into the chamber of the spray device. […] The reduction in the compliance in the third minute after the administration of LTD4 is read by comparing the average value of three animals with the average value of three control animals and the percentage inhibition of the compliance is calculated in accordance with the following formula: [formula] If different concentrations of active ingredient are investigated, then the percentage inhibition for each concentration is recorded by entering the log concentration on the abscissa against the percentage inhibition on the ordinate. […]

Turning to `CCCc1c(OCC(O)COc2cccc(NC(=O)C(=O)O)c2C#N)ccc(C(C)=O)c1O` (stereo not drawn) [N-{3-[3-(4-acetyl-3-hydroxy-2-n-propyl-phenoxy)-2-hydroxypropoxy]-2-cyanophenyl}-oxamic acid, reference compound], the IC50 entry is “inactive at 100” in experiment [1] and “inactive at 100” in experiment [2] (pH 6, 37°, 5 minutes, phosphatidyl-[14C]-inositol).

Consider `CCCc1c(OCC(O)COc2cccc(NC(=O)C(=O)O)c2)ccc(C(C)=O)c1O` (stereo not drawn) [N-{3-[3-(4-acetyl-3-hydroxy-2-n-propyl-phenoxy)-2-hydroxypropoxy]-phenyl}-oxamic acid, reference compound], for which, in experiment [1], the IC50 entry is “inactive at 100”.

On to `CCCc1c(OCCCOc2cccc(NC(=O)c3nnn[nH]3)c2C#N)ccc(C(C)=O)c1O` [N-{3-[3-(4-acetyl-3-hydroxy-2-n-propylphenoxy)-propoxy]-2-cyanophenyl}-1H-tetrazole-5-carboxamide], for which the IC50 was determined as 20 µM in experiment [1] (read-out: IC50) and 14 µM in experiment [2] (pH 6, 37°, 5 minutes, phosphatidyl-[14C]-inositol, read-out: IC50).

Regarding `CCCc1c(OCCCOc2cccc(NC(=O)C(=O)O)c2C#N)ccc(C(C)=O)c1O` [N-{3-[3-(4-acetyl-3-hydroxy-2-n-propylphenoxy)-propoxy]-2-cyanophenyl}-oxamic acid], the IC50 in experiment [1] (read-out: IC50) came out at 30 µM.

In the case of `CCCc1c(OCCCOc2cc(NC(=O)c3nnn[nH]3)c(C)cc2Br)ccc(C(C)=O)c1O` [N-{3-[3-(4-acetyl-3-hydroxy-2-n-propylphenoxy)-propoxy]-4-bromo-6-methylphenyl}-1H-tetrazole-5-carboxamide], the figures for the 50% inhibitory concentration (IC50) in experiment [3] and in experiment [1] (read-out: IC50) were 0.008 µM and 10 µM, respectively.

In the case of `CCCc1c(OCCCOc2cc(NC(=O)C(=O)O)c(C)cc2Br)ccc(C(C)=O)c1O` [N-{3-[3-(4-acetyl-3-hydroxy-2-n-propylphenoxy)-propoxy]-4-bromo-6-methylphenyl}-oxamic acid], the IC50 in experiment [1] (read-out: IC50) was 15 µM; in experiment [4], 0.033 % of the aerosol solution.

Turning to `CCCc1c(OCCCOc2ccc(C)c(NC(=O)C(=O)O)c2)ccc(C(C)=O)c1O` [N-{3-[3-(4-acetyl-3-hydroxy-2-n-propylphenoxy)-propoxy]-6-methylphenyl}-oxamic acid], the IC50 in experiment [3] is 0.015 µM; in experiment [4], 0.024 % of the aerosol solution.

For the compound `CCCc1c(OCCCOc2cccc(NC(=O)C(=O)O)c2)ccc(C(C)=O)c1O` [N-{3-[3-(4-acetyl-3-hydroxy-2-n-propylphenoxy)-propoxy]-phenyl}-oxamic acid], the IC50 in experiment [1] (read-out: IC50) is 23 µM.

As for `CCN(CC)CCCC(C)Nc1c2ccc(Cl)cc2nc2ccc(OC)cc12` (stereo not drawn) [mepacrine, reference compound], the IC50 amounted to 1600 µM in experiment [1] (read-out: IC50) and 20 µM in experiment [2] (mepacrine under the test conditions described, read-out: IC50).

The record behind these values is patent publication US4863942A, “Novel resorcinol ethers and anti-inflammatory and anti-allergic use thereof” (Ciba-Geigy Corporation, priority 1984, dated 1989).
